In ChEMBL document CHEMBL6153048, “Synthesis and pharmacological evaluation of natural product diphyllin derivatives against head and neck squamous cell carcinoma” (Eur J Med Chem, 2025):
One block for each compound: values may come before it. The source made the active and inactive calls. No cut-off for these calls is given here.

What was measured:
[1] = system: CAL-27; experiment: Antiproliferative activity against human CAL-27 cells assessed as inhibition rate at 0.1 uM incubated for 72 hrs by MTT assay relative to control; type: functional
[2] = system: CAL-27; experiment: Inhibition of cell migration in human CAL-27 cells at 1 to 1000 nM incubated for 24 hrs by wound healing assay; type: functional, cell-based; details: dose 1-1000 nM
[3] = system: CAL-27; experiment: Antitumor activity against human CAL-27 cells xenografted in BALB/c mouse model assessed as tumor volume change at 0.6 mg/kg, iv treated four times a week for 30 days; type: functional; details: CAL-27, 720 h, time 30 day, read-out: TGI
[4] = system: CAL-27; experiment: Antitumor activity against human CAL-27 cells xenografted in BALB/c mouse model assessed as reduction in tumor weight at 0.6 mg/kg, iv treated four times a week for 30 days; type: functional; set-up: scale not given: the % may be the effect or the level left; details: time 30 day
[5] = Cmax in ICR mouse at 1 mg/kg, iv measured upto 24 hrs by LC-MS/MS analysis; type: ADME, organism-based; details: in vivo
[6] = Cmax in ICR mouse at 3 mg/kg, po measured upto 24 hrs by LC-MS/MS analysis; type: ADME, organism-based; details: in vivo
[7] = AUC (0 to t) in ICR mouse at 3 mg/kg, po measured upto 24 hrs by LC-MS/MS analysis; type: ADME, organism-based; details: in vivo
[8] = Antiproliferative activity against human L02 cells assessed as inhibition rate at 0.1 uM incubated for 72 hrs by MTT assay relative to control; type: toxicity, cell-based
[9] = system: CAL-27; experiment: Induction of apoptosis in human CAL-27 cells assessed as necrotic cells at 1 nM incubated for 72 hrs by Annexin V-FITC/propidium iodide staining based flow cytometry analysis (reference value: 0.03%); type: functional
[10] = system: SCC-9; experiment: Antiproliferative activity against human SCC-9 cells assessed as inhibition rate at 0.1 uM incubated for 72 hrs by MTT assay relative to control; type: functional
[11] = system: K562; experiment: Cytotoxicity against human K562 cells incubated for 72 hrs by MTT assay; type: functional, cell-based; details: K562, 72 h
[12] = Cytotoxicity against human HN-6 cells incubated for 72 hrs by MTT assay; type: functional, cell-based; details: HN-6, 72 h
[13] = system: HepG2; experiment: Cytotoxicity against human HepG2 cells incubated for 72 hrs by MTT assay; type: functional, cell-based; details: HepG2, 72 h
[14] = system: CAL-27; experiment: Effect on apoptosis in human CAL-27 cells assessed as regulation of gene expression at 1 nM incubated for 48 hrs by GSEA analysis; type: functional, cell-based
[15] = system: SNU-182; experiment: Cytotoxicity against human SNU-182 cells incubated for 72 hrs by MTT assay; type: functional, cell-based; details: SNU-182, 72 h
[16] = AUC (0 to t) in ICR mouse at 1 mg/kg, iv measured upto 24 hrs by LC-MS/MS analysis; type: ADME, organism-based; details: in vivo
[17] = system: CAL-27; experiment: Induction of cell cycle arrest in human CAL-27 cells assessed as downregulation of CDK4 expression incubated for 24 hrs by Western blotting analysis; type: functional, cell-based; details: dose 1-1000 nM
[18] = system: PANC-1; experiment: Cytotoxicity against human PANC-1 cells incubated for 72 hrs by MTT assay; type: functional, cell-based; details: PANC-1, 72 h
[19] = system: CAL-27; experiment: Antiproliferative activity against human CAL-27 cells assessed as inhibition of cell communities at 10 uM treated for 11 days by plate clone formation assay; type: functional, cell-based; details: time 11.0 day
[20] = system: ASPC1; experiment: Cytotoxicity against human ASPC1 cells incubated for 72 hrs by MTT assay; type: functional, cell-based; details: ASPC1, 72 h
[21] = Plasma clearance in ICR mouse at 1 mg/kg, iv measured upto 24 hrs by LC-MS/MS analysis; type: ADME, organism-based
[22] = species on record: Homo sapiens; experiment: Inhibition of V-ATPase activity in lysosome of human CAL-27 cells using Lyso-Tracker Red as fluorescent probe assessed as decrease in fluorescence intensity at 0.25 uM incubated for 24 hrs by flow cytometry analysis
[23] = system: CAL-27; experiment: Induction of apoptosis in human CAL-27 cells assessed as necrotic cells at 10 nM incubated for 72 hrs by Annexin V-FITC/propidium iodide staining based flow cytometry analysis (reference value: 0.03%); type: functional
[24] = system: CAL-27; experiment: Induction of cell cycle arrest in human CAL-27 cells assessed as downregulation of cyclin D1 expression incubated for 24 hrs by Western blotting analysis; type: functional, cell-based; details: dose 1-1000 nM
[25] = Antiproliferative activity against human HN-6 cells assessed as inhibition rate at 0.1 uM incubated for 72 hrs by MTT assay relative to control; type: functional
[26] = Half life in ICR mouse at 1 mg/kg, iv measured upto 24 hrs by LC-MS/MS analysis; type: ADME, organism-based; details: in vivo
[27] = system: MDA-MB-231; experiment: Cytotoxicity against human MDA-MB-231 cells incubated for 72 hrs by MTT assay; type: functional, cell-based; details: MDA-MB-231, 72 h
[28] = Cytotoxicity against human […] incubated for 72 hrs by MTT assay; type: functional, cell-based; details: WSU-HN30, 72 h
[29] = Cytotoxicity against human NCI-H322 cells incubated for 72 hrs by MTT assay; type: functional, cell-based; details: NCI-H322, 72 h
[30] = system: SCC-25; experiment: Cytotoxicity against human SCC-25 cells incubated for 72 hrs by MTT assay; type: functional, cell-based; details: SCC-25, 72 h
[31] = system: Jurkat; experiment: Cytotoxicity against human Jurkat cells incubated for 72 hrs by MTT assay; type: functional, cell-based
[32] = system: CAL-27; experiment: Cytotoxicity against human CAL-27 cells incubated for 72 hrs by MTT assay; type: functional, cell-based; details: CAL-27, 72 h
[33] = system: SNU-449; experiment: Cytotoxicity against human SNU-449 cells incubated for 72 hrs by MTT assay; type: functional, cell-based; details: SNU-449, 72 h
[34] = Cytotoxicity against human L02 cells incubated for 72 hrs by MTT assay; type: toxicity, cell-based
[35] = system: KYSE-510; experiment: Cytotoxicity against human KYSE-510 cells incubated for 72 hrs by MTT assay; type: functional, cell-based; details: KYSE-510, 72 h
[36] = Antiproliferative activity against human WSU HN-30 cells assessed as inhibition rate at 0.1 uM incubated for 72 hrs by MTT assay relative to control; type: functional; details: WSU-HN30
[37] = system: CAL-27; experiment: Induction of apoptosis in human CAL-27 cells assessed as necrotic cells at 1000 nM incubated for 72 hrs by Annexin V-FITC/propidium iodide staining based flow cytometry analysis (reference value: 0.03%); type: functional
[38] = system: SK-BR-3; experiment: Cytotoxicity against human SK-BR-3 cells incubated for 72 hrs by MTT assay; type: functional, cell-based; details: SK-BR-3, 72 h
[39] = species on record: Homo sapiens; experiment: Inhibition of V-ATPase activity in lysosome of human CAL-27 cells using Lyso-Tracker Red as fluorescent probe assessed as decrease in fluorescence intensity at 0.5 uM incubated for 24 hrs by flow cytometry analysis
[40] = system: CAL-27; experiment: Induction of apoptosis in human CAL-27 cells assessed as necrotic cells at 100 nM incubated for 72 hrs by Annexin V-FITC/propidium iodide staining based flow cytometry analysis (reference value: 0.03%); type: functional
[41] = system: SCC-25; experiment: Antiproliferative activity against human SCC-25 cells assessed as inhibition rate at 0.1 uM incubated for 72 hrs by MTT assay relative to control; type: functional
[42] = system: SCC-9; experiment: Cytotoxicity against human SCC-9 cells incubated for 72 hrs by MTT assay; type: functional, cell-based; details: SCC-9, 72 h
[43] = Oral bioavailability in ICR mouse at 3 mg/kg measured upto 24 hrs by LC-MS/MS analysis; type: ADME, organism-based; details: in vivo

Cmax [5]: 609 ng/mL | Cmax [6]: 306 ng/mL | AUC(0-t) at 24 h [7]: 338 ng·h/mL | AUC(0-t) at 24 h [16]: 541 ng·h/mL | clearance [21]: 31.6 mL/min/kg | Activity [22]: Active | half-life [26]: 31.8 min | Activity [39]: Active | bioavailability [43]: 20.9%
Structure (SMILES): COc1cc2c(O[C@@H]3O[C@@H]4CO[C@@H](c5ccsc5)O[C@H]4[C@H](O)[C@H]3O)c3c(c(-c4ccc5c(c4)OCO5)c2cc1OC)C(=O)OC3
inhibition at 0.1 µM [1]: 81.5% | inhibition [2]: Active | inhibition in vivo at 0.6 mg/kg [3]: 23.3% | Activity [4]: 46% | inhibition at 72 h, 0.1 µM [8]: 23.5% | Activity [9]: 0.11% | inhibition at 0.1 µM [10]: 76.3% | IC50 [11]: 2.8 nM | IC50 [12]: 9.34 nM | IC50 [13]: 20.7 nM | Activity [14]: Active | IC50 [15]: 45.5 nM | Activity [17]: Dose-dependent-effect; Showed Effective Suppression | IC50 [18]: 405 nM | Activity [19]: Active | IC50 [20]: 283 nM | Activity [23]: 3% | Activity [24]: Dose-dependent-effect; Showed Effective Suppression | inhibition at 0.1 µM [25]: 69.4% | IC50 [27]: 48.3 nM | IC50 [28]: 77.8 nM | IC50 [29]: 298 nM | IC50 [30]: 7.44 nM | IC50 [31]: 166 nM | IC50 [32]: 4.37 nM | IC50 [33]: 544 nM | IC50 at 72 h [34]: > 10000 nM | IC50 [35]: 10.9 nM | inhibition at 0.1 µM [36]: 65.5% | Activity [37]: 9.61% | IC50 [38]: 2.4 nM | Activity [40]: 4.68% | inhibition at 0.1 µM [41]: 64.7% | IC50 [42]: 5.5 nM

Cmax [5]: 160 ng/mL | Cmax [6]: 11.9 ng/mL | AUC(0-t) at 24 h [7]: 3.56 ng·h/mL | AUC(0-t) at 24 h [16]: 43.6 ng·h/mL | clearance [21]: 409 mL/min/kg | Activity [22]: inactive | half-life [26]: 6.48 min | Activity [39]: inactive | bioavailability [43]: 2.7%
Structure (SMILES): COc1cc2c(O)c3c(c(-c4ccc5c(c4)OCO5)c2cc1OC)C(=O)OC3 [DIPHYLLIN]
inhibition at 0.1 µM [1]: 13.7% | inhibition [2]: Active | inhibition in vivo at 0.6 mg/kg [3]: 42.2% | Activity [4]: 33.3% | inhibition at 72 h, 0.1 µM [8]: 7.61% | Activity [9]: 0.14% | inhibition at 0.1 µM [10]: 16.6% | IC50 [11]: 343 nM | IC50 [12]: 2210 nM | IC50 [13]: > 10000 nM | IC50 [15]: > 10000 nM | Activity [17]: Dose-dependent-effect | IC50 [18]: > 10000 nM | Activity [19]: Active | IC50 [20]: > 10000 nM | Activity [23]: 0.07% | Activity [24]: Dose-dependent-effect | inhibition at 0.1 µM [25]: 30.8% | IC50 [27]: > 10000 nM | IC50 [28]: 1370 nM | IC50 [29]: > 10000 nM | IC50 [30]: 2390 nM | IC50 [31]: 1660 nM | IC50 [32]: 2000 nM | IC50 [33]: > 10000 nM | IC50 at 72 h [34]: > 10000 nM | IC50 [35]: 2040 nM | inhibition at 0.1 µM [36]: 9.52% | Activity [37]: 0.09% | IC50 [38]: > 10000 nM | Activity [40]: 0.08% | inhibition at 0.1 µM [41]: 23.3% | IC50 [42]: 1350 nM
